Measurements taken from ChEMBL document CHEMBL2406991, “A novel series of metabotropic glutamate receptor 5 negative allosteric modulators based on a 4,5,6,7-tetrahydropyrazolo[1,5-a]pyridine core” (Bioorg Med Chem Lett, 2013).
pIC50: −log10 of the molar value. ≈ marks a conversion by molar mass, not a printed value. Each block holds one compound with its values, some of them ahead of it. Calls of active or inactive are those of the source. The rule behind the calls is not given here.

What was measured:
[1] = target: Metabotropic glutamate receptor 5 (Rattus norvegicus, UniProt P31424); experiment: Negative allosteric modulation of rat mGluR5 receptor expressed in HEK293 cells assessed as intracellular calcium flux after 170 seconds by FLIPR assay; type: functional, cell-based; details: for pIC50: read-out: IC50; for IC50: hek293
[2] = Cmax in rat CSF at 30 mg/kg, sc; type: ADME, organism-based, Cerebrospinal fluid; design: dose 30 mg/kg, route subcutaneous
[3] = target: Cytochrome P450 3A4 (Homo sapiens, UniProt P08684); experiment: Inhibition of CYP3A4 (unknown origin); type: ADME
[4] = Half life in rat at 3 mg/kg, iv; type: ADME, organism-based; design: dose 3 mg/kg, route intravenous; details: in vivo
[5] = target: Metabotropic glutamate receptor 5 (Rattus norvegicus) (UniProt P31424); experiment: Inhibition of rat mGluR5 receptor expressed in HEK293 cells at 30 uM relative to control; type: cell-based
[6] = target: T1, Cytochrome P450 1A2 (Homo sapiens, UniProt P05177); experiment: Inhibition of CYP1A2 (unknown origin); type: ADME
T1 sequence (P05177 whole entry): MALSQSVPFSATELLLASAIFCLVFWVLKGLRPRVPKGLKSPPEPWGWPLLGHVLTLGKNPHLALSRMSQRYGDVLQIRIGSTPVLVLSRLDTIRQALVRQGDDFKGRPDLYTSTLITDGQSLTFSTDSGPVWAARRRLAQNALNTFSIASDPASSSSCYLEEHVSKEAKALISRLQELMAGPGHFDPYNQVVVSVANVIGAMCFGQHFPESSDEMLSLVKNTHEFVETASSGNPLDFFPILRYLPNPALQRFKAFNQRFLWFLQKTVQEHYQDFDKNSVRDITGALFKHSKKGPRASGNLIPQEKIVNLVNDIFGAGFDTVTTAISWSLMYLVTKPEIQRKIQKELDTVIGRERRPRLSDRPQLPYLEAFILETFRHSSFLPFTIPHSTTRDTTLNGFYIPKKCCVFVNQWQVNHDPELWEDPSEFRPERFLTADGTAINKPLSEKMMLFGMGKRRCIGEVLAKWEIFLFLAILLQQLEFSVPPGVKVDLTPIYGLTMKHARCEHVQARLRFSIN

[7] = tested on: Plasma; experiment: Terminal plasma concentration in Sprague-Dawley rat at 3 mg/kg, po measured during second phase of formalin test; type: ADME, organism-based; design: dose 3 mg/kg, route oral; details: in vivo
[8] = target: Metabotropic glutamate receptor 5 (Rattus norvegicus) (UniProt P31424); experiment: Displacement of [3H]MPEP from mGluR5 receptor in Sprague-Dawley rat cortical homogenate after 1 hr by liquid scintillation spectrometric analysis
[9] = tested on: Plasma; experiment: Terminal plasma concentration in Sprague-Dawley rat at 30 mg/kg, po measured during second phase of formalin test; type: ADME, organism-based; design: dose 30 mg/kg, route oral; details: in vivo
[10] = tested on: Plasma; experiment: Drug uptake in rat CSF assessed as ratio of CSF to plasma at 30 mg/kg, sc relative to control; type: ADME, organism-based; design: dose 30 mg/kg, route subcutaneous; details: in vivo
[11] = tested on: Rattus norvegicus; experiment: Antinociceptive activity in po dosed Sprague-Dawley rat assessed as reduction in formalin-induced nocifensive behavior administered 30 mins prior to formalin-challenge measured during second phase of test; type: functional, organism-based
[12] = Clearance in rat at 3 mg/kg, iv; type: ADME, organism-based; design: dose 3 mg/kg, route intravenous; details: in vivo
[13] = Volume of distribution at steady state in rat at 3 mg/kg, iv; type: ADME, organism-based; design: dose 3 mg/kg, route intravenous; details: in vivo, read-out: Vdss
[14] = tested on: Rattus norvegicus; experiment: Antinociceptive activity in Sprague-Dawley rat assessed as reduction in formalin-induced nocifensive behavior at 30 mg/kg, po administered 30 mins prior to formalin-challenge measured during second phase of test; type: functional, organism-based; design: dose 30 mg/kg
[15] = target: Cytochrome P450 2C9 (Homo sapiens, UniProt P11712); experiment: Inhibition of CYP2C9 (unknown origin); type: ADME
[16] = target: Cytochrome P450 2D6 (Homo sapiens, UniProt P10635); experiment: Inhibition of CYP2D6 (unknown origin); type: ADME
[17] = Kinetic solubility of the compound in DMSO at pH 7.4; type: physicochemical; details: read-out: Kinetic_solubility
[18] = tested on: Plasma; experiment: Terminal plasma concentration in Sprague-Dawley rat at 10 mg/kg, po measured during second phase of formalin test; type: ADME, organism-based; design: dose 10 mg/kg, route oral; details: in vivo
[19] = Cmax in rat plasma at 30 mg/kg, sc; type: ADME, organism-based; design: dose 30 mg/kg, route subcutaneous
[20] = Intrinsic clearance in human microsomes measured per mg of protein; type: ADME, Microsome
[21] = Intrinsic clearance in rat microsomes measured per mg of protein; type: ADME, Microsome
[22] = Kinetic solubility of the compound in DMSO at pH 1; type: physicochemical; details: read-out: Kinetic_solubility
[23] = tested on: Plasma; experiment: Terminal plasma concentration in Sprague-Dawley rat at 1 mg/kg, po measured during second phase of formalin test; type: ADME, organism-based; design: dose 1 mg/kg, route oral; details: in vivo
[24] = tested on: Rattus norvegicus; experiment: Antinociceptive activity in Sprague-Dawley rat assessed as reduction in formalin-induced nocifensive behavior at 1 to 30 mg/kg, po administered 30 mins prior to formalin-challenge measured during first phase of test; type: functional, organism-based
[25] = Fraction unbound in rat plasma; type: ADME, cell-free
[26] = tested on: Plasma; experiment: Metabolic stability in rat plasma matrix; type: ADME, cell-free
[27] = target: Metabotropic glutamate receptor 5 (Rattus norvegicus) (UniProt P31424); experiment: Partial negative allosteric modulation of rat mGluR5 receptor expressed in HEK293 cells assessed as intracellular calcium flux after 170 seconds by FLIPR assay relative to control; type: functional, cell-based
[28] = tested on: Rattus norvegicus; experiment: Antinociceptive activity in Sprague-Dawley rat assessed as reduction in formalin-induced nocifensive behavior at 10 mg/kg, po administered 30 mins prior to formalin-challenge; type: functional, organism-based; design: dose 10 mg/kg

Chain of Cytochrome P450 2D6 (P10635 whole entry): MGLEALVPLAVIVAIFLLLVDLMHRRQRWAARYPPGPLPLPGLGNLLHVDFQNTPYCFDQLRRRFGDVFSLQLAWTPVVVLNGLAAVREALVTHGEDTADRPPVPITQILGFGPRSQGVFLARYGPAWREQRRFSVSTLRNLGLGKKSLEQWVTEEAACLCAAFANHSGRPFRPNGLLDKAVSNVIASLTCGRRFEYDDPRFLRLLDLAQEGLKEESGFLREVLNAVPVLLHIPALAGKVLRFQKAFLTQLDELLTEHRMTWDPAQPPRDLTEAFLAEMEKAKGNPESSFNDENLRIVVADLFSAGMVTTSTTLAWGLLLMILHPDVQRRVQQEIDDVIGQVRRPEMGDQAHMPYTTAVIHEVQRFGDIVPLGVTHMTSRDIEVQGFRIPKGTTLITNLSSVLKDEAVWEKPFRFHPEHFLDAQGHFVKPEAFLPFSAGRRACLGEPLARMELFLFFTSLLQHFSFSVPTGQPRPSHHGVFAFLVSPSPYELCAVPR
Chain of Cytochrome P450 3A4 (P08684 whole entry): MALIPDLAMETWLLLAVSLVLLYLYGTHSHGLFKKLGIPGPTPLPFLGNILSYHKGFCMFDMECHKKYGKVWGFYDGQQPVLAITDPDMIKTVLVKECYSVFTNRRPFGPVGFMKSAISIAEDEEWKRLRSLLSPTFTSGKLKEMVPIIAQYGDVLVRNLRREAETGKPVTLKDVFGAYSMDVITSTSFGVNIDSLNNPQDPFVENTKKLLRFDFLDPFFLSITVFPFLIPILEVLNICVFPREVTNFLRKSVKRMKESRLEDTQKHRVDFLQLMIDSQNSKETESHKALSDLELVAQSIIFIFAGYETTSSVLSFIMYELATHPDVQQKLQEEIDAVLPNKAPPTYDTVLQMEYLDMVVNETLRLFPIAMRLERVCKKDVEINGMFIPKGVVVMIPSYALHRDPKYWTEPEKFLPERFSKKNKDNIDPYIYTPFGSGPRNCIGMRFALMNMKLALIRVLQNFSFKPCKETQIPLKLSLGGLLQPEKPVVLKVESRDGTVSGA
Chain of Metabotropic glutamate receptor 5 (P31424 whole entry): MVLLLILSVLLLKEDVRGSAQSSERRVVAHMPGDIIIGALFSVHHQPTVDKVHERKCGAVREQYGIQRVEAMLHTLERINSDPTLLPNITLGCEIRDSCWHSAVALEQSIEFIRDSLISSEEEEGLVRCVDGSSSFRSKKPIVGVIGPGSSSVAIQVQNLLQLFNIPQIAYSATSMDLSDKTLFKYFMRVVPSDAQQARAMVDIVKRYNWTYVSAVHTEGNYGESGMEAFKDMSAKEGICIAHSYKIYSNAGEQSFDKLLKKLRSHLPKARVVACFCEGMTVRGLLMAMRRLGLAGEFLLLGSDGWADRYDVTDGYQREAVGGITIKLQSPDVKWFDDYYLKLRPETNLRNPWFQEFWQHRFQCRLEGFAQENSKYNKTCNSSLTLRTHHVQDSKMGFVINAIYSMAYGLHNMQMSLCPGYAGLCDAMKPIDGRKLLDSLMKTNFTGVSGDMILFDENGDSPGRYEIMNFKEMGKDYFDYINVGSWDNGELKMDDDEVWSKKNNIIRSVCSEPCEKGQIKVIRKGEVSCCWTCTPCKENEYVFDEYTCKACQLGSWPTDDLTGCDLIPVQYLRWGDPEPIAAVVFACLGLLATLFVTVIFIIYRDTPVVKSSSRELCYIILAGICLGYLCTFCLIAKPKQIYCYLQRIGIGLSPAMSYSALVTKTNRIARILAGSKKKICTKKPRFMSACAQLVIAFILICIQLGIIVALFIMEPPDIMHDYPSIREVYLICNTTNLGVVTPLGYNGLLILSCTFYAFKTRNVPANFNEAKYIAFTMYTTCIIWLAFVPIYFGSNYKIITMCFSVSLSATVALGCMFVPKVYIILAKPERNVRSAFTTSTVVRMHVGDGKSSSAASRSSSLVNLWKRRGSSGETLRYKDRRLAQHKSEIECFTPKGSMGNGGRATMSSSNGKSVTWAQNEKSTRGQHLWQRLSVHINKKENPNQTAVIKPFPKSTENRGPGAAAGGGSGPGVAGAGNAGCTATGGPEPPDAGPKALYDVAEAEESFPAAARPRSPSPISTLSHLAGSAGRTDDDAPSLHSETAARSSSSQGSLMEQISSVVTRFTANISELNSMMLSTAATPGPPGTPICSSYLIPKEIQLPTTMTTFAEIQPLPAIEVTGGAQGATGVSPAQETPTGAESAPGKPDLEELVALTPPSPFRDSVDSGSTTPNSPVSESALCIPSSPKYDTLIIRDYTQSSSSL
Chain of Cytochrome P450 2C9 (P11712 whole entry): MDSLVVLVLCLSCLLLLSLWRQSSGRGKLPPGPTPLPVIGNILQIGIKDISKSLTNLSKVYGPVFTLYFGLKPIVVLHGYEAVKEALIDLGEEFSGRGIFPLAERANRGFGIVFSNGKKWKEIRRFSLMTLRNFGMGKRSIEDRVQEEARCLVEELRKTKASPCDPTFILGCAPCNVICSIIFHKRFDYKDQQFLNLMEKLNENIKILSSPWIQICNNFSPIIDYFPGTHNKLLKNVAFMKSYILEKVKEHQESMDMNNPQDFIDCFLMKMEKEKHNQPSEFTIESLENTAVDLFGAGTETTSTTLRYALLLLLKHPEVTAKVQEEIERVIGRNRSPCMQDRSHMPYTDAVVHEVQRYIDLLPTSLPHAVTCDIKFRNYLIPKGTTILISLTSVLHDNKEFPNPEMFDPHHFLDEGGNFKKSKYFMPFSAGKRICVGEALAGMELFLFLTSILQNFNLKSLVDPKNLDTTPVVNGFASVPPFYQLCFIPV
Chain of Metabotropic glutamate receptor 5 (Rattus norvegicus) (P31424 21-1203 limits assumed): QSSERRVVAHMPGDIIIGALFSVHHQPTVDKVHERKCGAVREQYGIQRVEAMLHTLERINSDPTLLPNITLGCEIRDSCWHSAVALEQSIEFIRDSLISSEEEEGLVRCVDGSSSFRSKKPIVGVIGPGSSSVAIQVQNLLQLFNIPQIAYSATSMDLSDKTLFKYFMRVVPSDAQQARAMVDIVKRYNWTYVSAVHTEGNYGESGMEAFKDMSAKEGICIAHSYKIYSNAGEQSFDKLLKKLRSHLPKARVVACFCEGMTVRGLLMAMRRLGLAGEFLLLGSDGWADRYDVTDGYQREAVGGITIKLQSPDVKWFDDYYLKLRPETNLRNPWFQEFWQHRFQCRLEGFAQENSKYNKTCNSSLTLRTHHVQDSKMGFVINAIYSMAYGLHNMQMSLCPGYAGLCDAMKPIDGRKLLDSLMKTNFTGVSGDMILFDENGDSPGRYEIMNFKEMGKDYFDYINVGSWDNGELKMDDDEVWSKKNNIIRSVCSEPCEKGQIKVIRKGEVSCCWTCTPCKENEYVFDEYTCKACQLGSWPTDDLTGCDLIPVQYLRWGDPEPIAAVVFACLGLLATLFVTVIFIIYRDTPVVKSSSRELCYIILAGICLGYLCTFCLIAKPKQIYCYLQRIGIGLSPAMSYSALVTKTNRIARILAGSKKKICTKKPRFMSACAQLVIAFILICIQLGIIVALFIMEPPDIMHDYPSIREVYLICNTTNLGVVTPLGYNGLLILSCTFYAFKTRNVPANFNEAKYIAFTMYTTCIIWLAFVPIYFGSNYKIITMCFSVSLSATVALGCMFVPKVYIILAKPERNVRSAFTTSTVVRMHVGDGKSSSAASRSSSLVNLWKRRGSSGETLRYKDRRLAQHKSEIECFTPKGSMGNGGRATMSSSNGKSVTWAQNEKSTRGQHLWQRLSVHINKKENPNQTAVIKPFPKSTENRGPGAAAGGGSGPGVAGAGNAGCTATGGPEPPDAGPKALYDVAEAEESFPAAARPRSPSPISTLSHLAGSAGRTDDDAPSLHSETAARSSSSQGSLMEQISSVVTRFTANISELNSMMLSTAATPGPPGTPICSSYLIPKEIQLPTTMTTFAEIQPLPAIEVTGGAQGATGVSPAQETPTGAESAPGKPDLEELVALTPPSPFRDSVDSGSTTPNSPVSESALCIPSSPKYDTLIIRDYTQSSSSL

SMILES: O=C(Nc1cccc(C(F)(F)F)n1)c1cc2n(n1)CCCC2
IC50 [1]: Not Active

SMILES: CC(=O)c1ccc(COc2cc3n(n2)CCCC3)nc1
IC50 [1]: Not Active

SMILES: N#Cc1ccc(NC(=O)c2cc3ccccn3n2)nc1
pIC50 [1]: 5.74

SMILES: N#Cc1ccc(COc2cc3n(n2)CCCC3)nc1
Cmax [2]: 416 ng/mL | INH [3]: > 10 µM | half-life [4]: 12 min | inhibition [5]: > 99% | INH [6]: > 10 µM | Cp(T) [7]: 5.3 ng/mL | INH [8]: 299 nM | Cp(T) [9]: 501 ng/mL | Drug uptake [10]: 14.4% | Activity [11]: Dose-dependent effect | clearance [12]: 72 mL/min/kg | Vd [13]: 1.1 L/kg | Activity [14]: Active | INH [15]: > 10 µM | INH [16]: > 10 µM | solubility kinetic [17]: 100 µg/mL (≈ 393 µM) | Cp(T) [18]: 46 ng/mL | Cmax [19]: 2900 ng/mL | microsomal CLint [20]: 85 µL/min/mg | microsomal CLint [21]: 42 µL/min/mg | pIC50 [1]: 6.50 | solubility kinetic [22]: 160 µg/mL (≈ 629 µM) | Cp(T) [23]: 2.4 ng/mL | Activity [24]: inactive | fraction unbound [25]: 0.32

SMILES: Clc1ccnc(-c2cc3n(n2)CCCC3)c1
pIC50 [1]: 6.17

SMILES: N#Cc1ccc(COc2cc3n(n2)CCCC3)cc1
pIC50 [1]: 5.79

SMILES: COc1cccc(-c2cc3n(n2)CCCC3)c1
pIC50 [1]: 5.35

SMILES: N#Cc1ccc(CC(=O)c2nn3c(c2C#N)CCCC3)nc1
pIC50 [1]: 5.27

SMILES: Cc1ccc(-c2cc3n(n2)CCCC3)nc1
pIC50 [1]: 5.52

SMILES: Nc1cccc(COc2cc3n(n2)CCCC3)n1
IC50 [1]: Not Active

SMILES: N#Cc1ccc(CC(=O)c2nn3c(c2Cl)CCCC3)nc1
INH [3]: > 10 µM | inhibition [5]: > 99% | INH [6]: > 10 µM | INH [15]: > 10 µM | INH [16]: > 10 µM | microsomal CLint [20]: 79 µL/min/mg | microsomal CLint [21]: 649 µL/min/mg | pIC50 [1]: 6.97

SMILES: Clc1cccc(COc2cc3n(n2)CCCC3)c1
pIC50 [27]: 6.48

SMILES: Cc1nc(C#Cc2cccnc2)cs1
Activity [28]: Active

Now from value to compound:

pIC50 [1]: 5.72
SMILES: c1ccc(-c2cc3n(n2)CCCC3)cc1

IC50 [1]: Not Active
SMILES: Cc1cccc(NC(=O)c2cc3n(n2)CCCC3)n1

IC50 [1]: Not Active
SMILES: c1ccc(COc2cc3n(n2)CCCC3)cc1

IC50 [1]: Not Active
SMILES: Cc1cccnc1-c1cc2n(n1)CCCC2

pIC50 [1]: 6.41
SMILES: O=C(Cc1ccccn1)c1cc2n(n1)CCCC2

pIC50 [1]: 5.58
SMILES: Clc1ccccc1-c1cc2n(n1)CCCC2

pIC50 [1]: 6.58
SMILES: O=C(Nc1ccc(Cl)cn1)c1cc2n(n1)CCCC2

INH [3]: > 10 µM | inhibition [5]: > 99% | INH [6]: > 10 µM | INH [8]: 151 nM | Stability [26]: Unstable | INH [15]: > 10 µM | INH [16]: > 10 µM | microsomal CLint [20]: 83 µL/min/mg | pIC50 [1]: 7.05
SMILES: N#Cc1ccc(NC(=O)c2cc3n(n2)CCCC3)nc1

IC50 [1]: Not Active
SMILES: Cc1cccnc1NC(=O)c1cc2n(n1)CCCC2

INH [3]: > 10 µM | inhibition [5]: > 99% | INH [6]: > 10 µM | INH [8]: 1180 nM | INH [15]: > 10 µM | INH [16]: > 10 µM | solubility kinetic [17]: 180 µg/mL (≈ 903 µM) | microsomal CLint [20]: 97 µL/min/mg | microsomal CLint [21]: 118 µL/min/mg | pIC50 [1]: 5.89 | solubility kinetic [22]: 170 µg/mL (≈ 853 µM)
SMILES: c1ccc(-c2cc3n(n2)CCCC3)nc1

IC50 [1]: Not Active
SMILES: Cc1ccnc(NC(=O)c2cc3n(n2)CCCC3)c1

IC50 [1]: Not Active
SMILES: CN(C(=O)c1cc2n(n1)CCCC2)c1ccccn1

pIC50 [1]: < 5.00
SMILES: O=C(Nc1ncccc1O)c1cc2n(n1)CCCC2

pIC50 [1]: 5.91
SMILES: Cc1cccc(-c2cc3n(n2)CCCC3)n1
